Experimental data taken from patent publication US11173144B2, “Adrenergic receptor modulating compounds and methods of using the same” (The Board of Trustees of the Leland Stanford Junior …, priority 2016, dated 2021).

Columns and labels:
5-HT2B = 5-HT2B (Homo sapiens (Human), UniProt P41595); assay: CNS target panel screen: 5-HT2B; assay type: binding
Description: (§1) From a drug development perspective, characterizing the off-target effects of lead compounds is an important issue, as interactions with off-target molecules may lead to undesirable side effects. Thus we screened xamoterol (S) and the key compound compound 43 against a panel of CNS relevant targets, including G-protein coupled receptor and transporters.

[1] = tested on: LPS-induced TNF-α production in primary microglia; assay: In vitro primary microglia TNF-α assay (LPS stimulation, ELISA); assay type: cell-based, rat; details: rat primary microglia, LPS 10 ng/ml, compound 10 μM, 4 h; read-out: inhibition of LPS-induced TNF-α production
Description: Mixed glial cells are obtained from the cerebral cortex of Sprague Dawley rat pups at postnatal days 1-3. Briefly, neonates are euthanized by decapitation and their brain tissues are collected for isolation of cortex. The isolated cortex was then trypsinized, triturated, and placed onto tissue culture flasks in DMEM supplemented with 10% fetal bovine serum and 1% Penicillin/Streptomycin. After 10 days in vitro, microglia are harvested by gentle shaking of the growth flask, plated in a 96 well plate at a density of 30,000 cells/well, and incubated at 37° C. overnight. […] Following the 4 h incubation, cell media is collected and the concentration of TNF-α is measured by ELISA (Invitrogen, KRC3011) according to the manufacturer's instruction.
The effects of selected compounds on cellular inflammatory response to LPS are determined in primary microglia extracted from a rat. Briefly, mixed glial cells are obtained from the cerebral cortex of Sprague Dawley rat pups at postnatal days 1-3 and cultured in DMEM supplemented with 10% fetal bovine serum. After 7 days in vitro, microglia are harvested by gentle shaking of the growth flask and plated in a 96 well plate at the density of 3×10^4 cells/well. The cells are used following day. Effects of compounds on LPS-induced TNFα production are determined by incubating cells with LPS along with or without test compounds for 4 hours. Following the 4 hour incubation, cell media are collected and concentration of TNFα was measured by EUSA.

[2] = Microsomal stability assay, mouse; details: 0.1 uM
α1D adrenergic receptor = α1D adrenergic receptor (Homo sapiens (Human), UniProt P25100); assay: CNS target panel screen: α1D adrenergic receptor; assay type: binding
Description: as §1, with “transporters. […].” for “transporters.”

[3] = tested on: panel of CNS relevant targets, including G-protein coupled receptor and transporters; assay: Screen against a panel of CNS relevant targets (off-target affinity); assay type: binding
Description: as §1, with “transporters. […].” for “transporters.”

D3 dopaminergic receptor = D3 dopaminergic receptor (Homo sapiens (Human), UniProt P35462); assay: CNS target panel screen: D3 dopaminergic receptor; assay type: binding
Description: as §1, with “transporters. […].” for “transporters.”

5-HT1A = 5-HT1A (Homo sapiens (Human), UniProt P08908); assay: CNS target panel screen: 5-HT1A; assay type: binding
Description: as §1, with “transporters. […].” for “transporters.”

α1A adrenergic receptor = α1A adrenergic receptor (Homo sapiens (Human), UniProt P35348); assay: CNS target panel screen: α1A adrenergic receptor; assay type: binding
Description: as §1, with “transporters. […].” for “transporters.”

[4] = tested on: tMCAO rat model of stroke; assay: tMCAO model of stroke, Paw-Whisker test of sensorimotor function; assay type: in vivo; details: 3 mg/kg then 0.3 mg/kg daily subcutaneous, 28 days
Procedure: The tMCAO is performed on animal under isoflurane inhalation anesthesia (4% for induction and 1.5-2.5% for maintenance) in airoxygen mixture ratio 3:1. Ventral neck area is shaved by electric razor and disinfected using betadine followed by 70% ethanol solution. Subsequently, a midline incision is made in the ventral neck area, sharp and blunt dissection techniques are used to isolate left common carotid artery (CCA) and the internal and external carotid arteries (ICA and ECA, respectively). The proximal CCA is ligated below the bifurcation using 3-0 braided silk suture allowing enough room for filament insertion in the area between the ligation and bifurcation. Subsequently, ECA is ligated at its origin dose to the CCA bifurcation, so that the occipital artery stays proximal to the ligature. A microvessel dip is placed on ICA temporarily to avoid excessive bleeding during filament insertion. In order to occlude the origin of middle cerebral artery (MCA), a monofilament with silicon coated tip (0.39 mm diameter, 5-6 mm long) is then inserted into the CCA, the microvessel dip removed following filament advancement into the ICA 20 mm from the bifurcation through small, horizontal incision. […] Sensorimotor function was measured by the Paw-Whisker test (vibrissae-evoked forelimb placing) once a week until 4 weeks post stroke. […]

C57bl/6J mice = assay: Neurogenesis, doublecortin-immunoreactive neuroblast counts in dentate gyrus; details: 0.3 mg/kg subcutaneous daily from 3.5 to 6.0 months of age
5XFAD mice = assay: Chronic xamoterol in 5XFAD mouse model of Alzheimer's disease, cortex qRT-PCR of inflammation genes; details: 3 mg/kg/day by mini-osmotic pump, 2.5 months

Sequence of 5-HT1A (P08908 whole entry, species assumed): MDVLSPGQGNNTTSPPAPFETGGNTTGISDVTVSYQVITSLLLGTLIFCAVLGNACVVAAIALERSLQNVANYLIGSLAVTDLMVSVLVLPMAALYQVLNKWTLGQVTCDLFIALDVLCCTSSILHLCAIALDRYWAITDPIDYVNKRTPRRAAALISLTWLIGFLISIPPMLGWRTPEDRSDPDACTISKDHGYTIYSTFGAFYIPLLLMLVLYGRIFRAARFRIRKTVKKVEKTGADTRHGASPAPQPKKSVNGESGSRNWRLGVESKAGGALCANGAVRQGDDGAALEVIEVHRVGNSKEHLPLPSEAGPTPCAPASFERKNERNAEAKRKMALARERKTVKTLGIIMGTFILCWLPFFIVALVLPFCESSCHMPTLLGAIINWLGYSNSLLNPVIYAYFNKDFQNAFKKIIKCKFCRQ
Sequence of α1D adrenergic receptor (P25100 whole entry): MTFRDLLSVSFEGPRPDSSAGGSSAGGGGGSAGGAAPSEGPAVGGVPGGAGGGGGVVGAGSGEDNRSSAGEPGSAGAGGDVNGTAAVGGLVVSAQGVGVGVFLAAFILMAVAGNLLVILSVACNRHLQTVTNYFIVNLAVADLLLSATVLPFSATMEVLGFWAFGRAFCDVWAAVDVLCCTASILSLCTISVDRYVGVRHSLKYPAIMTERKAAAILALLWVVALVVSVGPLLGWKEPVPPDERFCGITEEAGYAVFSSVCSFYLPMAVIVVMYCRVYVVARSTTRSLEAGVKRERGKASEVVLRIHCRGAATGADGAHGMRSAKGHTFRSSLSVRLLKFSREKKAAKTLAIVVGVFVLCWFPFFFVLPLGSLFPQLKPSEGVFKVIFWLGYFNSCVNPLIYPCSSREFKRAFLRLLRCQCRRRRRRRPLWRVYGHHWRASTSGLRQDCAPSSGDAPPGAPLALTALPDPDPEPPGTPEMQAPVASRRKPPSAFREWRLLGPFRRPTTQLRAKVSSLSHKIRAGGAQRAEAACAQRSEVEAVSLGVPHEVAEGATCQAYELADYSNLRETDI
Sequence of D3 dopaminergic receptor (P35462 whole entry): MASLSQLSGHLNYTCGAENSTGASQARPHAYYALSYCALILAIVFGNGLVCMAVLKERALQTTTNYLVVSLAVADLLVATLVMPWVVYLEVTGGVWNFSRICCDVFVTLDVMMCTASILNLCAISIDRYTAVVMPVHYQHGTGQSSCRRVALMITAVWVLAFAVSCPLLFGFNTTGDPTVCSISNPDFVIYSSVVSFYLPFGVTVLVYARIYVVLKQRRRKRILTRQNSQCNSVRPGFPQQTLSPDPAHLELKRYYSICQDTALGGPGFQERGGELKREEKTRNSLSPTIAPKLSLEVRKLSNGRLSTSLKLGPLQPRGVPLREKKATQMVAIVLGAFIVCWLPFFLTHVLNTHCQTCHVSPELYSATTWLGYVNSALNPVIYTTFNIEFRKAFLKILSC
Sequence of α1A adrenergic receptor (P35348 whole entry): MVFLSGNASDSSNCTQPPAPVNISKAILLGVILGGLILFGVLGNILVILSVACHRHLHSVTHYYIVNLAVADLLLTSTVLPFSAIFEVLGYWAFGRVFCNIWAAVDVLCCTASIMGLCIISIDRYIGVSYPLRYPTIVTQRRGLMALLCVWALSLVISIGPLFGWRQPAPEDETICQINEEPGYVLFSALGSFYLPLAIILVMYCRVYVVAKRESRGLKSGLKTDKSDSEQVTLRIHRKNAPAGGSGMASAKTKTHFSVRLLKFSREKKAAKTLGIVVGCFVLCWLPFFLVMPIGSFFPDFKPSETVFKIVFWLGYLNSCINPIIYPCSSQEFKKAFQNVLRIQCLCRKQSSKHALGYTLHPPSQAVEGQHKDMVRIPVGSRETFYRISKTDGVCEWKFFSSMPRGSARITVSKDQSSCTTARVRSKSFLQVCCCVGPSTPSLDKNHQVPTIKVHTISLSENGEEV
Sequence of 5-HT2B (P41595 whole entry, species assumed): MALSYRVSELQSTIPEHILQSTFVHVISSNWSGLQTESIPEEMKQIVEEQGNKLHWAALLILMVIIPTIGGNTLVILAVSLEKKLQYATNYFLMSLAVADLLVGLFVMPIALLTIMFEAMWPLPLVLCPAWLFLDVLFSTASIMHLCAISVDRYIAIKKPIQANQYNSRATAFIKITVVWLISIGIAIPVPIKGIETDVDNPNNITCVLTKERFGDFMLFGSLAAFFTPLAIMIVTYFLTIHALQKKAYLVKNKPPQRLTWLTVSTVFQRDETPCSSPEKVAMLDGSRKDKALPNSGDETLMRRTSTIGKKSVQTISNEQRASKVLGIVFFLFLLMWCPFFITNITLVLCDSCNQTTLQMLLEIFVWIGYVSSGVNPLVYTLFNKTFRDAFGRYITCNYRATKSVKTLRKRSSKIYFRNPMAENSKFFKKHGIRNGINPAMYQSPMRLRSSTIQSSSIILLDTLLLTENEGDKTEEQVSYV

SMILES	affinity for 5-HT2B (5-HT2B)	inhibition at 10 µM [1] [%]	compound remaining after 60 minutes in mouse liver microsomes [2] [%]	affinity for α1D adrenergic receptor (α1D adrenergic receptor)	affinity for opioid, histamine, and muscarinic acetylcholine receptors [3]	affinity for D3 dopaminergic receptor (D3 dopaminergic receptor)	affinity for 5-HT1A (5-HT1A)	affinity for α1A adrenergic receptor (α1A adrenergic receptor)	sensorimotor function [4]	neurogenesis (neuroblast counts in dentate gyrus) (C57bl/6J mice)	expression of inflammation genes in cortex (5XFAD mice)
COc1ccccc1OCCNC[C@H](O)COc1ccc(O)cc1 [Compound 43]	significant affinity	~55	62.8	significant affinity	nominal affinity	significant affinity	significant affinity	significant affinity	–	–	–
O=C(NCCNCC(O)COc1ccc(O)cc1)N1CCOCC1 (centres unmarked) [Xamoterol, reference compound]	–	–	–	–	–	–	–	–	improves sensorimotor function	increases neurogenesis	attenuated elevated expression of Iba1, CD74, CD14 and TGFb
